{"source": "patent US9737495B2", "about": "“Process for obtaining purified pterostilbene and methods of use thereof” (Indus Biotech Private Limited, priority 2009, dated 2017)", "key": {"[1]": {"biological_target": "T1, SIRT1 (Homo sapiens, UniProt Q96EB6)", "T1 sequence (Q96EB6 1-747)": "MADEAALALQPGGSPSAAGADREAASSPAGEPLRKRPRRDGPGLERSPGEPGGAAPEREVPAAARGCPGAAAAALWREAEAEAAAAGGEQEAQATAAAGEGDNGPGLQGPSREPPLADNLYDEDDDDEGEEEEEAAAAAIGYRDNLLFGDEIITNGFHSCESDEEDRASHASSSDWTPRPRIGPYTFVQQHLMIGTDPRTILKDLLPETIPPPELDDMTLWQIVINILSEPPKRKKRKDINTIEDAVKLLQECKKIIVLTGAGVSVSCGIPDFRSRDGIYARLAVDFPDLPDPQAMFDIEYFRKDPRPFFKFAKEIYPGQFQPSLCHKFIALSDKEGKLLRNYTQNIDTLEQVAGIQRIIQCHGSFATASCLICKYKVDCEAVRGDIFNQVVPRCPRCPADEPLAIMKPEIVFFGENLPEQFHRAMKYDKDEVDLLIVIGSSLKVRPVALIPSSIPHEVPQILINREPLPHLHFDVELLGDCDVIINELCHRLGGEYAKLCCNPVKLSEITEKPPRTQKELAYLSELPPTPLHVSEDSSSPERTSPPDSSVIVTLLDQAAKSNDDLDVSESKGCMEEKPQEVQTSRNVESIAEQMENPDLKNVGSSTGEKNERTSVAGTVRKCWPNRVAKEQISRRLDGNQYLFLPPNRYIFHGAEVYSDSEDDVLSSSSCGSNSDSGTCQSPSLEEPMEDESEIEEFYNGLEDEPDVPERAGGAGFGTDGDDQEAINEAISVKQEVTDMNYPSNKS", "assay": "SIRT1 inhibition, Fluor de Lys fluorimetric deacetylase assay (in vitro)", "assay_type": "biochemical", "conditions": "read-out: IC50 for SIRT1 (converted)"}, "[2]": {"biological_target": "T2, Human recombinant deacetylase sirtuin SIRT2 (Homo sapiens, UniProt Q8IXJ6)", "T2 construct": "host or cells: E. coli", "T2 sequence (Q8IXJ6 1-389)": "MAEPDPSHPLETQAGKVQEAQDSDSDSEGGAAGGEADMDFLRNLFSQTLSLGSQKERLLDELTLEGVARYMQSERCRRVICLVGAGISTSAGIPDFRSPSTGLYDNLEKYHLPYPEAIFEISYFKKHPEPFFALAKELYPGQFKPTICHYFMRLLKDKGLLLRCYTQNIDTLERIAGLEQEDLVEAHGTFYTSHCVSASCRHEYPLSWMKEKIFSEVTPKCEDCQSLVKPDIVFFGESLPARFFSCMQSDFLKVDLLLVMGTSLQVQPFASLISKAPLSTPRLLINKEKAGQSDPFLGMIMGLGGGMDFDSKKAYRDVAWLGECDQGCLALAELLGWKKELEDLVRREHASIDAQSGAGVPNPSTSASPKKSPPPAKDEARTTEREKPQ", "assay": "SIRT2 inhibition, Fluor de Lys fluorimetric deacetylase assay (in vitro)", "assay_type": "biochemical", "conditions": "read-out: IC50 for SIRT2 (converted)", "protocol": "(§1) Human recombinant deacetylase sirtuin SIRT2 expressed in E. coli was used. Test compound (1, 10, 100 and 1000 μg/ml conc.) and/or vehicle was pre-incubated with 2 μg/ml enzyme in Tris-HCl buffer pH 8.0 for 15 minutes at 37° C. The reaction is initiated by addition of 25 μM Fluor de Lys-SIRT1 and 150 μM NAD for another 120 minute incubation period and is terminated by further addition of Fluor de Lys Developer. Determination of the amount of de-acetate Fluor de Lys formed is read spectrofluorimetrically with excitation at 360 nm and emission at 465 nm. The concentration-response (% inhibition) curve was plotted and IC50 was calculated.\nas §1, with “37 °C.” for “37° C.”"}, "[3]": {"tested_on": "3-NP induced HD in rats", "assay": "3-NP induced HD in rats: body weight", "assay_type": "in vivo, Wistar rats", "conditions": "for % difference of body weights: 30 mg/kg p.o. daily complexed with cyclodextrin + 3-NPA 20 mg/kg/day i.p., n=6", "protocol": "(§2) 3-NP (20 mg/kg i.p., daily in 2 divided doses) was administered to all the Wistar rats of weight range 250-300 g. in two divided doses at 12 hr interval for 9-11 days until disease is induced (acutely ill). It took 12 days to completely induce the disease symptoms. 3-NP was diluted with water and the pH will be adjusted upto 7.4 with NaOH. It was administered intraperitoneally (i.p.) at a dose of 10 mg/kg every 12 hrs (8:00 am and 8:00 pm) for 12 days (total daily dose 20 mg/kg). The observations were done on day 0, 7, 9, 11 and 13. The test compound was administered for the same period p.o. (per oral) one hour before 3-NP injection (at 7:00 AM daily) at dose of 30 mg/kg, p.o. The experimental groups were as follows: 1) Healthy Control: No treatment 2) HD control (3-NP+cyclodextrin) 3) TEST COMPOUND (30 mg/kg, p.o. daily complexed with cyclodextrin) treated."}, "[4]": {"tested_on": "3-NP induced HD in rats", "assay": "3-NP induced HD in rats: neurological behavioral grading", "assay_type": "in vivo, Wistar rats", "conditions": "for neurological behavioral changes (neurological problems score, grades 0-5) / neurological score, % change from cyclo + 3-NPA treatment: 30 mg/kg p.o. + 3-NPA", "protocol": "as §2\nBehavioral changes were recorded daily, and immediately before sacrifice, graded according to the neurological scale described. A total of 6 grades included: • Grade 0: normal behavior; • Grade 1: general slowness in movement due to mild hind-limb impairment; • Grade 2: prominent gait abnormality with poor coordination; • Grade 3: nearly complete hind-limb paralysis; • Grade 4: incapability to move due to four-limb impairment; and • Grade 5: recumbence."}, "[5]": {"tested_on": "3-NP induced HD in rats", "assay": "3-NP induced HD in rats: squares crossed in open field test", "assay_type": "in vivo, Wistar rats", "conditions": "30 mg/kg p.o. + 3-NPA", "protocol": "as §2"}, "[6]": {"tested_on": "3-NP induced HD in rats", "assay": "3-NP induced HD in rats: brain wet weight", "assay_type": "in vivo, Wistar rats", "conditions": "Day 13, 30 mg/kg p.o. + 3-NPA", "protocol": "as §2\nOn day 13, the brains of the rats were dissected out and cleaned. The wet weight of the brains were recorded for each rat. The results are also graphically represented in FIG. 3\nOn day 13, the brains of the rats were dissected out and cleaned. The wet weight of the brains were recorded for each rat."}, "[7]": {"conditions": "test conc. 1-1000 μg/ml, pH 8.0, 37° C."}}, "note": "Read-outs that look alike come from different tables or passages of the source."}
{"smiles": "COc1cc(/C=C/c2ccc(O)cc2)cc(OC)c1", "note": "[Test compound, pterostilbene]", "values": [{"measurement": "IC50", "setting": "[1]; conversion of the μg/ml value", "result": 47, "unit": "µM"}, {"measurement": "IC50", "setting": "[1]; [7]", "result": 47.2, "unit": "µM"}, {"measurement": "IC50", "setting": "[2]; conversion of the μg/ml value", "result": 45, "unit": "µM"}, {"measurement": "IC50", "setting": "[2]; [7]", "result": 45.6, "unit": "µM"}, {"measurement": "% difference of body weights", "setting": "[3]; Day 7", "result": "1.90 ± 3.72", "unit": "%"}, {"measurement": "% difference of body weights", "setting": "[3]; Day 9", "result": "−0.82 ± 3.77", "unit": "%"}, {"measurement": "% difference of body weights", "setting": "[3]; Day 11", "result": "−2.53 ± 3.70", "unit": "%"}, {"measurement": "% difference of body weights", "setting": "[3]; Day 13", "result": "−6.08 ± 4.10", "unit": "%"}, {"measurement": "reduction in body weight", "setting": "[3]; after 11 days, 30 mg/kg p.o. + 3-NP (3-NP alone 12.48%)", "result": 2.53, "unit": "%"}, {"measurement": "neurological behavioral changes (neurological problems score, grades 0-5)", "setting": "[4]; Day 7", "result": 0}, {"measurement": "neurological behavioral changes (neurological problems score, grades 0-5)", "setting": "[4]; Day 9", "result": 1}, {"measurement": "neurological score, % change from cyclo + 3-NPA treatment", "setting": "[4]; Day 9", "result": "−83.33", "unit": "%"}, {"measurement": "neurological behavioral changes (neurological problems score, grades 0-5)", "setting": "[4]; Day 11", "result": 7}, {"measurement": "neurological score, % change from cyclo + 3-NPA treatment", "setting": "[4]; Day 11", "result": "−30", "unit": "%"}, {"measurement": "neurological behavioral changes (neurological problems score, grades 0-5)", "setting": "[4]; Day 13 (after 12-day treatment)", "result": 13}, {"measurement": "neurological score, % change from cyclo + 3-NPA treatment", "setting": "[4]; Day 13", "result": "−23.52", "unit": "%"}, {"measurement": "reduction of neurological problems as compared to vehicle (cyclo+3-NPA) group", "setting": "[4]; after 12-day treatment (Day 13), 30 mg/kg p.o.", "result": 23.52, "unit": "%"}, {"measurement": "number of squares crossed in open field test", "setting": "[5]; Day 7", "result": "144.17 ± 7.47"}, {"measurement": "number of squares crossed in open field test", "setting": "[5]; Day 9", "result": "125.67 ± 6.22"}, {"measurement": "number of squares crossed in open field test", "setting": "[5]; Day 11", "result": "109.00 ± 13.72"}, {"measurement": "number of squares crossed in open field test", "setting": "[5]; Day 13", "result": "77.83 ± 6.92"}, {"measurement": "Brain weight (g)-Mean ± SEM", "setting": "[6]", "result": "1.605 ± 0.0659", "unit": "g"}]}
